Experiments:
Assay in all cases: In vitro HDACs Inhibition Fluorescence Assay
Histone deacetylase 4 = Histone deacetylase 4 (Homo sapiens, UniProt P56524)
Procedure: (§1) Afterincubation at 37 °C for 10 min, 40 μL of fluorogenic substrate (Boc-Lys(Ac)-AMC for HeLa nuclear extracts; Ac-Leu- GlyLyS(Ac)-AMC for HDAC1, HDAC6, and HDAC11; Ac-Leu-GlyLyS(Tfa)-AMC for HDAC4 and HDAC8) was added, and then, the mixture was incubated at 37 °C for 30 min. The mixture was stopped by addition of 100 μL of developer containing trypsin and TSA afterward. Over the next incubation at 37 °C for 20 min, fluorescence intensity was measured using a microplate reader at excitation and emission wavelengths of 390 and 460 nm, respectively.

Histone deacetylase 6 = target: T1, Histone deacetylase 6 (Homo sapiens, UniProt Q9UBN7)
T1 sequence (Q9UBN7 whole entry): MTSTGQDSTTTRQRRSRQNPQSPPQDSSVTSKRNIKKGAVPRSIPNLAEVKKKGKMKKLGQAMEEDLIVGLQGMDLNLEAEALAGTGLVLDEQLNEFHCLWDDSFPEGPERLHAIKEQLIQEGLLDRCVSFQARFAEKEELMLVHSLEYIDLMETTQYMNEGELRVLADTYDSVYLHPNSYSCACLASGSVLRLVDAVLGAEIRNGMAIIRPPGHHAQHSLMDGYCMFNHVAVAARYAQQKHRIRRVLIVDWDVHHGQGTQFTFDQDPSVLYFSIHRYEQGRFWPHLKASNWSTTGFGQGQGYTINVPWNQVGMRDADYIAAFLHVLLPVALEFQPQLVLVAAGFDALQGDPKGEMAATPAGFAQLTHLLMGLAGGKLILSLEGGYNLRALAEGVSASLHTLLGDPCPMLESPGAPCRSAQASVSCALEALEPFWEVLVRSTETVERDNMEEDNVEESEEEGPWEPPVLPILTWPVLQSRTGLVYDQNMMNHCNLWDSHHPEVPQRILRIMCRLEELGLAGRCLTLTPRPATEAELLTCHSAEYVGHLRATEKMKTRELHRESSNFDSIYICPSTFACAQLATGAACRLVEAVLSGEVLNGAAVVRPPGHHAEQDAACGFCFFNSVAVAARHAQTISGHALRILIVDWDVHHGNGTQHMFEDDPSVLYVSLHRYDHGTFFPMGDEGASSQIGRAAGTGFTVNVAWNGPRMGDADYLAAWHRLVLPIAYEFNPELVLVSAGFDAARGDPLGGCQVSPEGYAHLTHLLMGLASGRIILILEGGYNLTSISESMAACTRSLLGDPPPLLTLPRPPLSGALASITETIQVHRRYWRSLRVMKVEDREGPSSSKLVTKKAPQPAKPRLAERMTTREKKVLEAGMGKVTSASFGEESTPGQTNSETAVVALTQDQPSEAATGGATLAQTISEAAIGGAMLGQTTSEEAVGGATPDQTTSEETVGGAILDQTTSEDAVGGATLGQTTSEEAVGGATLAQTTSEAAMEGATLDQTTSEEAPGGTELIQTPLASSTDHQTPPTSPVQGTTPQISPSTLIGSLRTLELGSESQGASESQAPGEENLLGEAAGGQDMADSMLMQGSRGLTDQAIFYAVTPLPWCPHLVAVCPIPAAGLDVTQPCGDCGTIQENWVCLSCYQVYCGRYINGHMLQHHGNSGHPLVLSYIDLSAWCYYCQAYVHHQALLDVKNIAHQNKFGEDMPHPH
Procedure: as §1

Histone deacetylase 1 = Histone deacetylase 1 (Homo sapiens, UniProt Q13547)
Procedure: as §1

Histone deacetylase 11 = target: T2, Histone deacetylase 11 (Homo sapiens, UniProt Q96DB2)
T2 sequence (Q96DB2 whole entry): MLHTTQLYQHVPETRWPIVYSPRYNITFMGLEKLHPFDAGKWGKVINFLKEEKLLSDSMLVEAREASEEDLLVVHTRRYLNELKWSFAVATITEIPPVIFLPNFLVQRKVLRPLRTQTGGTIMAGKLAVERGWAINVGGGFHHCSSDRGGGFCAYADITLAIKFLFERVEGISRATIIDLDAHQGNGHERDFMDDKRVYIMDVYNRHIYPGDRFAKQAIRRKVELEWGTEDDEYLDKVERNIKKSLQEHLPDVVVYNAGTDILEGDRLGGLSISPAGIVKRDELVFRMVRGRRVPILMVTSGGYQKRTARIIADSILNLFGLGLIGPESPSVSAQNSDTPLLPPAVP
Procedure: as §1

Histone deacetylase 8 = target: T3, Histone deacetylase 8 (Homo sapiens, UniProt Q9BY41)
T3 sequence (Q9BY41 whole entry): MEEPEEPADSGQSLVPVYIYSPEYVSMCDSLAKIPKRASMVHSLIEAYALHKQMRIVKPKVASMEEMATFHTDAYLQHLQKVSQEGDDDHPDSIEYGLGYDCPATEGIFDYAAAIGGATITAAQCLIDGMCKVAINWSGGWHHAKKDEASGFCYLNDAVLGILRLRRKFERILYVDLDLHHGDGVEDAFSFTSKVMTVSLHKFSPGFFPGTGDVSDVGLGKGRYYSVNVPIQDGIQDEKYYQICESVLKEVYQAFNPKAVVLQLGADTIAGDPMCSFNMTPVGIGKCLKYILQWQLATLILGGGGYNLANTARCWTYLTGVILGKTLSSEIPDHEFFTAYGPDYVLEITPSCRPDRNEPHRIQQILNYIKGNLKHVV
Procedure: as §1

Chain of Histone deacetylase 4 (P56524 whole entry): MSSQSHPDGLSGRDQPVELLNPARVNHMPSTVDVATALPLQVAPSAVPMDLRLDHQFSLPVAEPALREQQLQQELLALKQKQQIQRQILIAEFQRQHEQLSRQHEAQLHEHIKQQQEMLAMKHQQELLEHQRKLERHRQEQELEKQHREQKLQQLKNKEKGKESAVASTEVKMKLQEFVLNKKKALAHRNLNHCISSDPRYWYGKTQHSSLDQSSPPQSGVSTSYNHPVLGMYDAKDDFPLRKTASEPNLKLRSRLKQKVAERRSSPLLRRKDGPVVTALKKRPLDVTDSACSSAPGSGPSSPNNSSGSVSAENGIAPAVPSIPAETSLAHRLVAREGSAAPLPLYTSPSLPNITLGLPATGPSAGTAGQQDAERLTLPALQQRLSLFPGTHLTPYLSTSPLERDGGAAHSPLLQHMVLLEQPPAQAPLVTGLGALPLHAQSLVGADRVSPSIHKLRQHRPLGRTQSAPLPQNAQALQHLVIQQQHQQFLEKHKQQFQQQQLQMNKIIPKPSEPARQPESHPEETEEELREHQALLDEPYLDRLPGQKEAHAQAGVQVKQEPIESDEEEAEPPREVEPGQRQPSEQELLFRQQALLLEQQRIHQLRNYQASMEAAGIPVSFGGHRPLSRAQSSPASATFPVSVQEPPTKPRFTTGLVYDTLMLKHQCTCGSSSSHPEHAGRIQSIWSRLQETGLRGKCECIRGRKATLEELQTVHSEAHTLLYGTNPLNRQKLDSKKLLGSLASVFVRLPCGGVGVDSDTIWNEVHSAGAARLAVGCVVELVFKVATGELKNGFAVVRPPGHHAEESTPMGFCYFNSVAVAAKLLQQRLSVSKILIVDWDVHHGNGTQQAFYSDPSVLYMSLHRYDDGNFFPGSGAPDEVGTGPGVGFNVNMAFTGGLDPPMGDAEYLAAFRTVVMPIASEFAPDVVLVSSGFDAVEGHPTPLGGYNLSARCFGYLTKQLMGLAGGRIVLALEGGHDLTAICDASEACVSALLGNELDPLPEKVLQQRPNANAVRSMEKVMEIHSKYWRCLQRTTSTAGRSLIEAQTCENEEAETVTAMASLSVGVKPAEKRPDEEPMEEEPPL
Chain of Histone deacetylase 1 (Q13547 whole entry): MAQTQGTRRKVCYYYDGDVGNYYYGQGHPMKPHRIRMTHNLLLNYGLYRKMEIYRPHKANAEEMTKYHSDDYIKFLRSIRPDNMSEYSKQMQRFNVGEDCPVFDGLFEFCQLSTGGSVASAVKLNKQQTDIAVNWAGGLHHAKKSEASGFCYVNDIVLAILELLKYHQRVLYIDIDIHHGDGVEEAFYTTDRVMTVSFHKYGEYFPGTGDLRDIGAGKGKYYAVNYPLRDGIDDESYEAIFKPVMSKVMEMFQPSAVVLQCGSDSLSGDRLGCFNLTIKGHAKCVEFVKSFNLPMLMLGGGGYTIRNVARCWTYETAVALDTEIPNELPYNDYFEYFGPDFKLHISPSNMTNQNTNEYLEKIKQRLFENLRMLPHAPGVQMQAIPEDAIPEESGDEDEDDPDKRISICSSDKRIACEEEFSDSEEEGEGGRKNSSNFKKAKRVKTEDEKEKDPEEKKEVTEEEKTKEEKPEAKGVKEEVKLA

IC50 (Histone deacetylase 4) [nM] | IC50 (Histone deacetylase 6) [nM] | IC50 (Histone deacetylase 1) [nM] | IC50 (Histone deacetylase 11) [nM] | IC50 (Histone deacetylase 8) [nM] | Compound
9850 |  |  |  |  | O=C(/C=C/c1cccc(S(=O)(=O)Nc2ccccc2)c1)NO [Belinostat]
23000 | 80 | 93 | 3850 | 659 | O=C(/C=C/c1cccc(S(=O)(=O)N[C@H](C(=O)Nc2cccc3ccccc23)c2ccccc2)c1)NO [(S,E)-N-hydroxy-3-(3-(N-(2-(naphthalen-1-ylamino)-2-oxo-1-phenylethyl)sulfamoyl)phenyl)acrylamide (10s)]

— BindingDB's records for doi:10.1111/cbdd.12787 (Shandong University, 2016)
